Assay results published in ChEMBL document CHEMBL1130243, “Potent and selective inhibition of neuronal nitric oxide synthase by N omega-propyl-L-arginine” (J Med Chem, 1997).
pKi: −log10 of the molar value.

These compounds were tested against T1, Nitric oxide synthase 3 (Bos taurus, UniProt P29473) (assay: Compound was tested for binding affinity against Endothelial nitric oxide synthase).
T1 sequence (P29473 whole entry): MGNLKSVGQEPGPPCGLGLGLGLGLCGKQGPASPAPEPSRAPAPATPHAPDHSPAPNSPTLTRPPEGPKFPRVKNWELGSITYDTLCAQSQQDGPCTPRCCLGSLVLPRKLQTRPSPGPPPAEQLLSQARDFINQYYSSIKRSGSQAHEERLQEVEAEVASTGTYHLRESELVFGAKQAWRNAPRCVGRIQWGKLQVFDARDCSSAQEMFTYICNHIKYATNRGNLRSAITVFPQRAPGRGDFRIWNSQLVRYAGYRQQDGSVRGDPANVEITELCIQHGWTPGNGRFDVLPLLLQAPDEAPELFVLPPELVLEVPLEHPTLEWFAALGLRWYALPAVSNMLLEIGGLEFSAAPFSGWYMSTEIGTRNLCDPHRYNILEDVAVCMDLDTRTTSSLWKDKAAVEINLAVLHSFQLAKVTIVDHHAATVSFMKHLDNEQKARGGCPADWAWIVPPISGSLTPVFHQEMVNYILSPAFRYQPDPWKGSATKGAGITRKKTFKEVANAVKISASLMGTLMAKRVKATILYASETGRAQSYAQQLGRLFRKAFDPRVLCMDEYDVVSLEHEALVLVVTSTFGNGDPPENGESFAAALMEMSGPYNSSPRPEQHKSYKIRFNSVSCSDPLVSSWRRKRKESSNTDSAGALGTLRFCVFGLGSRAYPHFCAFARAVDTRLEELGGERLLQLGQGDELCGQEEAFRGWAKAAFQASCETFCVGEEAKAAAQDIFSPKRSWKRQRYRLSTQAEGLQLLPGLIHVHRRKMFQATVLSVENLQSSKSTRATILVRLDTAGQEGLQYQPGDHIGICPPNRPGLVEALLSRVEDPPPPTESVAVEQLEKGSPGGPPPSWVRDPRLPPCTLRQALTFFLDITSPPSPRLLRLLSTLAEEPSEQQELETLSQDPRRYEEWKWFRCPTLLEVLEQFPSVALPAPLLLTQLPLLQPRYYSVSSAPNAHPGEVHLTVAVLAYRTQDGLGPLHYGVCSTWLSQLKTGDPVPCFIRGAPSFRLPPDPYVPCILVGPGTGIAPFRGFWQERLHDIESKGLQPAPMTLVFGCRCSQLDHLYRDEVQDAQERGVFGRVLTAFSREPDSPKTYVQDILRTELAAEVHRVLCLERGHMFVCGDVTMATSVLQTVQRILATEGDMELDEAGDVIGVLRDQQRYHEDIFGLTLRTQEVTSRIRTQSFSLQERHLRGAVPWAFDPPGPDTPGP
Work on `C=CCNC(=N)NCCCC(N)C(C)=O` (stereo unspecified) yielded a pKi of 5.51. `CCC/N=C(/N)NCCCC(N)C(=O)O` (stereo unspecified) was tested, and the pKi was 5.07. `CC/N=C(/N)NCCCC(N)C(=O)O` (stereo unspecified) showed a pKi of 5.02.

These compounds were tested against T2, Nitric oxide synthase, inducible (Mus musculus, UniProt P29477) (assay: Compound was tested for binding affinity against recombinant inducible nitric oxide synthase (iNOS) from mouse).
T2 sequence (P29477 whole entry): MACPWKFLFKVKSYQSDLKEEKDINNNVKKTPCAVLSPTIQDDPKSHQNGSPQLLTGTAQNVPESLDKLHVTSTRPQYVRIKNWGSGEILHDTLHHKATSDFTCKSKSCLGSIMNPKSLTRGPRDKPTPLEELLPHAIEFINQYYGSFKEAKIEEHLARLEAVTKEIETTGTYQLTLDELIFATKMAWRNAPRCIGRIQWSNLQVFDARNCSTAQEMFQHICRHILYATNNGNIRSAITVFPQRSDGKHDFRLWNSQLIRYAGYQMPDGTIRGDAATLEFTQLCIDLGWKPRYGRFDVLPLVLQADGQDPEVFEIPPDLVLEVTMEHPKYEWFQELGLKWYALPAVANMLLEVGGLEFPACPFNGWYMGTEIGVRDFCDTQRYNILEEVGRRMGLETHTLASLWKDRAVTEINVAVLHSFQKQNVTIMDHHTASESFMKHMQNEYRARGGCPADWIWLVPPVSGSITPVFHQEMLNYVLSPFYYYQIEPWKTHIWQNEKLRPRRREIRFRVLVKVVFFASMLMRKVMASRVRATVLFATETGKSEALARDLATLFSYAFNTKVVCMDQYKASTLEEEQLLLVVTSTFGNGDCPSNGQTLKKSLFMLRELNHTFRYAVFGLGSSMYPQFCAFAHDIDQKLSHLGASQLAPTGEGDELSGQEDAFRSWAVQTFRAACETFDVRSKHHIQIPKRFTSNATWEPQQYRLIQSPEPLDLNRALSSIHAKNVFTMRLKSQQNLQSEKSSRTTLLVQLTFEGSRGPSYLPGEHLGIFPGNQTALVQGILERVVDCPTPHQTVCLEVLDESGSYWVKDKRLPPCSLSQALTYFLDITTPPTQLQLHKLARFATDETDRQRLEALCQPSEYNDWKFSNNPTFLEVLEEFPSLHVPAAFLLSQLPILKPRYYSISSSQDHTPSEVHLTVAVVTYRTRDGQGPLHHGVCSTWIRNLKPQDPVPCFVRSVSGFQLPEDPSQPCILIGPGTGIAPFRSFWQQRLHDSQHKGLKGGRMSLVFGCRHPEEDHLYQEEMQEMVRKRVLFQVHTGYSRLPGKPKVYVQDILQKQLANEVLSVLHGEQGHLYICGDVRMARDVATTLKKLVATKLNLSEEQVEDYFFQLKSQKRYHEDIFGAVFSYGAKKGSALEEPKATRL
With `C=CCNC(=N)NCCCC(N)C(C)=O` (stereo unspecified) the pKi was 5.68. `CC/N=C(/N)NCCCC(N)C(=O)O` (stereo unspecified) showed a pKi of 5.21. `C#CC/N=C(/N)NCCCC(N)C(=O)O` (stereo unspecified) gave a pKi of 6.21.
